In the assay the target is T1, spezifischen NPY-Rezeptors (Homo sapiens, UniProt P25929).
T1 construct: intrazellulären Ca⁺⁺-Konzentration in HEL-Zellen (Human Erythroleukemia-Zellen) fluorimetrisch mit Fura-2 als Indikator gemessen; endogenous in cells; host or cells: HEL (human erythroleukemia) cells
T1 sequence (P25929 1-384): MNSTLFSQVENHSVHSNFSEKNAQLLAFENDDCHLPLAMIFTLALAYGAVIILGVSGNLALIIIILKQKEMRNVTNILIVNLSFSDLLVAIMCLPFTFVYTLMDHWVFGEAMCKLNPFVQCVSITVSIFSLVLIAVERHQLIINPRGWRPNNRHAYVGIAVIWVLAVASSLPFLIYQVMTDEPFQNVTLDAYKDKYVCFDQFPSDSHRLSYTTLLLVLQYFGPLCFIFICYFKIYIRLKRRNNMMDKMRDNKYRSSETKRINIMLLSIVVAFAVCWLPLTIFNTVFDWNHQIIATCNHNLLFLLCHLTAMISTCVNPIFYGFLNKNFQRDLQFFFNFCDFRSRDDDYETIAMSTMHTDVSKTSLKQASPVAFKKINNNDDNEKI
Put plainly: Inhibition of the NPY-induced rise of intracellular Ca++ in HEL cells (fluorimetric, Fura-2; method of Motulsky and Michel). The assay is classed as cell-based. The following applies: HEL-Zellen, antagonists added at 10⁻⁴ bis 10⁻⁶ (unit inferred), Schild-Plot-Analyse, read-out: pA2 Hemmung des Ca^++-Anstieges (converted). The source says:
Die Neuropeptid-Y-antagonistische Wirkung der erfindungsgemäß verwendeten Verbindungen wurde anhand der Methode von Motulsky und Michel (Motulsky, H.J., Michel, M.C., Am. J. Physiol. 255, 880 (1988)) nachgewiesen.
Bei dieser Methode wird der durch NPY induzierte Anstieg der intrazellulären Ca⁺⁺-Konzentration in HEL-Zellen (Human Erythroleukemia-Zellen) fluorimetrisch mit Fura-2 als Indikator gemessen. Unter den gegebenen Bedingungen bewirkt NPY einen konzentrationsabhängigen Anstieg der intrazellulären Ca⁺⁺-Konzentration über die Stimulation des spezifischen NPY-Rezeptors.
Zur Messung der Hemmwirkung der zu testenden Antagonisten werden diese in Konzentrationen von 10⁻⁴ bis 10⁻⁶ dem Inkubationsmedium zugesetzt. Dann wird erneut eine NPY-Wirkungskurve bestimmt.
Die erfindungsgemäß verwendeten Guanidinverbindungen verschieben die NPY-Konzentrationswirkungskurve nach rechts. Die Rechtsverschiebung ist nach Schild-Plot-Analyse kompetitiv. Die Substanzen antagonisieren demnach die NPY-Wirkung durch Konkurrenz am spezifischen NPY-Rezeptor.

SMILES strings stand for the structures.

Turning to `N=C(NCCCc1c[nH]cn1)NCCOC(c1ccccc1)c1ccccc1` [Verbindung A, N¹-[3-(1H-Imidazol-4-yl)propyl]-N²-[2-(diphenylmethoxy)ethyl]-guanidin], the Kb is 100 µM.
To `N=C(NCCCc1c[nH]cn1)NCCC(c1cc(F)cc(F)c1)c1ccccn1` (stereo not shown) [Verbindung B, N¹-[3-(3,5-Difluorphenyl)-3-(pyridin-2-yl)propyl]-N²-[3-(1H-imidazol-4-yl)propyl]-guanidin] belongs 19.1 µM; to `Cc1cc(Br)cnc1N(CCNC(=N)NCCCc1c[nH]cn1)Cc1ccccc1` [Verbindung C, N¹-[2-[N-(5-Brom-3-methyl-pyridin-2-yl)benzylamino]-ethyl]-N²-[3-(1H-imidazol-4-yl)propyl]-guanidin], 1.32 µM; to `Cc1cc(Br)cnc1CCCCNC(=N)NCCCc1c[nH]cn1` [Verbindung D, N¹-[4-(5-Brom-3-methyl-pyridin-2-yl)butyl]-N²-[3-(1H-imidazol-4-yl)propyl]-guanidin], 9.12 µM.

For the origin of these results see patent EP0448765A1, “Use of guanidine derivatives for the manufacture of a medicament with NPY-antagonistic activity” (HEUMANN PHARMA GMBH & CO, priority 1990, dated 1991).
